Experimental data as given in patent publication US12398154B2, “Azaquinazoline pan-KRas inhibitors” (Mirati Therapeutics, Inc., priority 2020, dated 2025).
pIC50: −log10 of the molar value.

Key:
KRas WT = KRas WT (Homo sapiens, UniProt P01116); test: biochemical;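 further: binding to KRas read as TR-FRET displacement after a one-hour room-temperature incubation, IC50 derived from percent-of-control values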
Experimental: (§1) The ability of a compound to bind to KRas was measured using a TR-FRET displacement assay. […] After a 60-minute incubation at room temperature, the reaction was measured using a BMG LABTECH CLARIO star Plus via TR-FRET. […] The POC values were fit to a 4-parameter IC50 equation and the IC50 value reported.

KRas G12S = KRas G12S (Homo sapiens, UniProt P01116, G12S); test: biochemical;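 further: TR-FRET displacement binding to KRas, read after one hour incubation at room temperature, IC50 from four-parameter fit of percent of control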
Sequence of KRas G12S (P01116 1-169 isoform P01116-2 G12S): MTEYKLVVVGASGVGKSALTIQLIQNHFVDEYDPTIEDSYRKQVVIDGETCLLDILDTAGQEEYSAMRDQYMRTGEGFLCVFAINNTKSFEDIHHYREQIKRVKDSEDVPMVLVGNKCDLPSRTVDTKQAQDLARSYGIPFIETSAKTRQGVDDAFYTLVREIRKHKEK
Experimental: as §1

KRas Q61H = molecular target: T1, KRas Q61H (Homo sapiens, UniProt P01116, Q61H); test: KRas binding assay (TR-FRET displacement);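 further: TR-FRET signal read after one hour at room temperature, IC50 derived by four-parameter fitting of percent-of-control values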
T1 construct: Biotinylated KRas (corresponding to amino acids 1-169, produced at Accelegan Inc.); biotin (biotinylated); purchased Accelegan Inc
T1 sequence (P01116 1-169 isoform P01116-2 Q61H): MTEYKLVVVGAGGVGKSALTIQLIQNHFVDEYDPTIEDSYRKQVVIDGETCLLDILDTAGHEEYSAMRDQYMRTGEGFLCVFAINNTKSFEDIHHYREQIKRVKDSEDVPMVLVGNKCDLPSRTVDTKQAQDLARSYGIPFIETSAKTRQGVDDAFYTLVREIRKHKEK
Experimental: as §1

KRas G12C = KRas G12C (Homo sapiens, UniProt P01116, G12C); test: biochemical;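 further: binding to KRas assessed by TR-FRET displacement after one hour incubation at room temperature, potency fitted from percent-of-control values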
Sequence of KRas G12C (P01116 1-169 isoform P01116-2 G12C): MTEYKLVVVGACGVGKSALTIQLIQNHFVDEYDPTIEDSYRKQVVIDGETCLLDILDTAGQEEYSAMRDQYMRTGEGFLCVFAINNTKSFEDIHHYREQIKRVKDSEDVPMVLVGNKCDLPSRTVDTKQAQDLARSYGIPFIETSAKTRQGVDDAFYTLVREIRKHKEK
Experimental: as §1

KRas G12R = KRas G12R (Homo sapiens, UniProt P01116, G12R); test: biochemical;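 further: TR-FRET displacement assay of compound binding to KRas, read after one hour at room temperature, potency from a four-parameter fit of percent-of-control values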
Sequence of KRas G12R (P01116 1-169 isoform P01116-2 G12R): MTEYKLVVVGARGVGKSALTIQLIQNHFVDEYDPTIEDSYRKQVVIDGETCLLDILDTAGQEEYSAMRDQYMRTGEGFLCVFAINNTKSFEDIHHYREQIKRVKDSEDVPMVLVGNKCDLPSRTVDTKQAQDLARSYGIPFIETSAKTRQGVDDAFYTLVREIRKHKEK
Experimental: as §1

KRas G12A = KRas G12A (Homo sapiens, UniProt P01116, G12A); test: biochemical;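 further: binding to KRas measured by TR-FRET displacement after one hour at room temperature, IC50 from a four-parameter fit of percent-of-control values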
Sequence of KRas G12A (P01116 1-169 isoform P01116-2 G12A): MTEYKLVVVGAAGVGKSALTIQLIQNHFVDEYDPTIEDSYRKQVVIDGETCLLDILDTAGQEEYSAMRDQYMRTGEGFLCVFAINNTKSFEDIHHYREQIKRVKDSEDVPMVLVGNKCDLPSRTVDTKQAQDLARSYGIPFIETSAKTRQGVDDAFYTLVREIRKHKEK
Experimental: as §1

KRas G13D = molecular target: T2, KRas G13D (Homo sapiens, UniProt P01116, G13D); test: KRas binding assay (TR-FRET displacement);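 further: One-hour room temperature incubation before TR-FRET reading, IC50 from a four-parameter curve fit to percent-of-control data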
T2 construct: Biotinylated KRas (corresponding to amino acids 1-169, produced at Accelegan Inc.); biotin (biotinylated); purchased Accelegan Inc
T2 sequence (P01116 1-169 isoform P01116-2 G13D): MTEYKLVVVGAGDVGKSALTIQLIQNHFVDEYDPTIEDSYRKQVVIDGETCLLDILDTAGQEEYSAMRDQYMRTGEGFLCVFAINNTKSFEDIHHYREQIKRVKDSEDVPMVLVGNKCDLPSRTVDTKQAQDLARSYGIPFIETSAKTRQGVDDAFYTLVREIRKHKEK
Experimental: as §1

KRas G12D = KRas G12D (Homo sapiens, UniProt P01116, G12D); test: biochemical;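 further: TR-FRET displacement binding assay on KRas, read after a one-hour incubation at room temperature, IC50 fitted from percent-of-control values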
Sequence of KRas G12D (P01116 1-169 isoform P01116-2 G12D): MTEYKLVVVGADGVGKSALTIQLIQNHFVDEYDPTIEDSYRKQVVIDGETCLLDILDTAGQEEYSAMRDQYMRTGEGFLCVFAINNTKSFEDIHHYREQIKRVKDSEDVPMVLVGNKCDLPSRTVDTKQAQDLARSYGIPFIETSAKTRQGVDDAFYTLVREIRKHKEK
Experimental: as §1

KRas G12V = KRas G12V (Homo sapiens, UniProt P01116, G12V); test: biochemical;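 further: KRas binding measured by TR-FRET displacement at room temperature, IC50 fitted from percent of control values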
Sequence of KRas G12V (P01116 1-169 isoform P01116-2 G12V): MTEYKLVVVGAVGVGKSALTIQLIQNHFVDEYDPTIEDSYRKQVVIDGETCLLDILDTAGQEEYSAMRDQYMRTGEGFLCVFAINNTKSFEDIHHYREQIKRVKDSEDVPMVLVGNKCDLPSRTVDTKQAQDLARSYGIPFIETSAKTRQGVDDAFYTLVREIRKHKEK
Experimental: as §1

Sequence of KRas WT (P01116 1-169 isoform P01116-2): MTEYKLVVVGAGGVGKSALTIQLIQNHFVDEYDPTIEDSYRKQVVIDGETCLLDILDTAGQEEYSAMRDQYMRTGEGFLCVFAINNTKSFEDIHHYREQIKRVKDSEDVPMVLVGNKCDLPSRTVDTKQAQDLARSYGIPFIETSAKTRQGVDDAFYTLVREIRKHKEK

| Structure (SMILES) | pIC50 (KRas WT) | pIC50 (KRas G12S) | IC50 (KRas Q61H) [nM] | pIC50 (KRas G12C) | pIC50 (KRas G12R) | pIC50 (KRas G12A) | IC50 (KRas G13D) [nM] | pIC50 (KRas G12D) | pIC50 (KRas G12V) |
| --- | --- | --- | --- | --- | --- | --- | --- | --- | --- |
| Fc1c(-c2cccc3cccc(F)c23)ncc2c(NCc3nnc4ncccn34)nc(OCC34CCCN3CCC4)nc12 [Example 121, N-([1,2,4]triazolo[4,3-a]pyrimidin 3 ylmethyl) 8-fluoro-7-(8-fluoronaphthalen-1-yl)-2-((tetrahydro-1H-pyrrolizin-7a(5H)-yl)methoxy)pyrido[4,3-d]pyrimidin-4-amine] | 4.89 | 4.73 | 25400 | 5.04 | 4.91 | 4.81 | 17300 | 4.37 | 5.18 |
| Fc1c(-c2cccc3cccc(F)c23)ncc2c(NCc3nnc4cccnn34)nc(OCC34CCCN3CCC4)nc12 [Example 122, N-([1,2,4]triazolo[4,3-b]pyridazin-3-ylmethyl)-8-fluoro-7-(8-fluoronaphthalen-1-yl)-2-((tetrahydro-1H-pyrrolizin-7a(5H)-yl)methoxy)pyrido[4,3-d]pyrimidin-4-amine] | 4.59 | 4.66 | 88200 | 5.46 | 4.90 | 4.84 | 86400 | ≤ 4.00 | 5.16 |
| Fc1c(-c2cccc3cccc(F)c23)ncc2c(N3CC=CCC3)nc(OCC34CCCN3CCC4)nc12 [Example 123, 4-(3,6-dihydropyridin-1 (2H)-yl)-8-fluoro-7-(8-fluoronaphthalen-1-yl)-2-((tetrahydro-1H-pyrrolizin-7a(5H)-yl)methoxy)pyrido[4,3-d]pyrimidine] | 5.46 | 5.56 | 4980 | 5.63 | 5.12 | 5.50 | 3480 | 5.35 | 5.50 |
| Fc1c(-c2cccc3cccc(F)c23)ncc2c(NCCCc3cccnc3)nc(OCC34CCCN3CCC4)nc12 [Example 124, 8-fluoro-7-(8-fluoronaphthalen-1-yl)-N-(3-(pyridin-3-yl)propyl)-2-((tetrahydro-1H-pyrrolizin-7a(5H)-yl)methoxy)pyrido[4,3-d]pyrimidin-4-amine] | 5.15 | 5.41 | 7140 | 5.83 | 5.66 | 5.68 | 7820 | 4.90 | 5.82 |
| Fc1c(-c2cccc3cccc(F)c23)ncc2c(NCc3ccc4nonc4c3)nc(OCC34CCCN3CCC4)nc12 [Example 125, N-(benzo[c][1,2,5]oxadiazol-5-ylmethyl)-8-fluoro-7-(8-fluoronaphthalen-1-yl)-2-((tetrahydro-1H-pyrrolizin-7a(5H)-yl)methoxy)pyrido[4,3-d]pyrimidin-4-amine] | 4.88 | 5.13 | 39000 | 5.37 | 5.36 | 5.26 | 29100 | 4.22 | 5.41 |
| Nc1cc2n(n1)CCN(c1nc(OCC34CCCN3CCC4)nc3c(F)c(-c4cccc5cccc(F)c45)ncc13)C2 [Example 126, 5-(8-fluoro-7-(8-fluoronaphthalen-1-yl)-2-((tetrahydro-1H-pyrrolizin-7a(5H)-yl)methoxy)pyrido[4,3-d]pyrimidin-4-yl)-4,5,6,7-tetrahydropyrazolo[1,5-a]pyrazin-2-amine] | 5.22 | 5.40 | 7500 | 5.03 | 4.73 | 4.86 | 7290 | 4.17 | ≤ 4.00 |
| O=S1(=O)CC(CNc2nc(OCC34CCCN3CCC4)nc3c(F)c(-c4cccc5cccc(F)c45)ncc23)C1 [Example 127, 3-(((8-fluoro-7-(8-fluoronaphthalen-1-yl)-2-((tetrahydro-1H-pyrrolizin-7a(5H)-yl)methoxy)pyrido[4,3-d]pyrimidin-4-yl)amino)methyl)thietane 1,1-dioxide] | 5.37 | 5.77 | 11100 | 5.66 | 5.59 | 5.57 | 8700 | 4.60 | 5.77 |
| O=S1(=O)CC[C@H](CNc2nc(OCC34CCCN3CCC4)nc3c(F)c(-c4cccc5cccc(F)c45)ncc23)N1 [Example 128, (R)-3-(((8-fluoro-7-(8-fluoronaphthalen-1-yl)-2-((tetrahydro-1H-pyrrolizin-7a(5H)-yl)methoxy)pyrido[4,3-d]pyrimidin-4-yl)amino)methyl)isothiazolidine 1,1-dioxide] | 4.89 | 5.11 | 18400 | 5.02 | 5.38 | 4.94 | 13400 | 4.31 | 5.06 |
| OC1CCCN(c2nc(OCC34CCCN3CCC4)nc3c(F)c(-c4cccc5cccc(F)c45)ncc23)CC1 (stereo not drawn) [Example 129, 1-(8-fluoro-7-(8-fluoronaphthalen-1-yl)-2-((tetrahydro-1H-pyrrolizin-7a(5H)-yl)methoxy)pyrido[4,3-d]pyrimidin-4-yl)azepan-4-ol] | 5.51 | 5.55 | 4360 | 5.60 | 5.35 | 5.57 | 2500 | 5.65 | 5.55 |
| OCC1CCCCN(c2nc(OCC34CCCN3CCC4)nc3c(F)c(-c4cccc5cccc(F)c45)ncc23)C1 (stereo not drawn) [Example 130, (1-(8-fluoro-7-(8-fluoronaphthalen-1-yl)-2-((tetrahydro-1H-pyrrolizin-7a(5H)-yl)methoxy)pyrido[4,3-d]pyrimidin-4-yl)azepan-3-yl)methanol] | 4.94 | 4.85 | 21900 | 5.04 | 4.74 | 4.98 | 25800 | 5.08 | 4.96 |
| Fc1c(-c2cccc3cccc(F)c23)ncc2c(N3CCCC(c4cc[nH]n4)C3)nc(OCC34CCCN3CCC4)nc12 (stereo not drawn) [Example 131, 4-(3-(1H-pyrazol-3-yl)piperidin-1-yl)-8-fluoro-7-(8-fluoronaphthalen-1-yl)-2-((tetrahydro-1H-pyrrolizin-7a(5H)-yl)methoxy)pyrido[4,3-d]pyrimidine] | 5.09 | 5.03 | 7690 | 5.46 | 5.55 | 5.35 | 6560 | 4.83 | 5.08 |
| Cc1cc2[nH]ncc2c(-c2ncc3c(N4CCCC(C)(O)C4)nc(OCC45CCCN4CCC5)nc3c2F)c1C1CC1 (stereo not drawn) [Example 144, 1-(7-(5-cyclopropyl-6-methyl-1H-indazol-4-yl)-8-fluoro-2-((tetrahydro-1H-pyrrolizin-7a(5H)-yl)methoxy)pyrido[4,3-d]pyrimidin-4-yl)-3-methylpiperidin-3-ol] | 7.13 | 7.19 | 82 | 7.11 | 7.02 | 7.15 | 60 | 7.37 | 7.32 |
| O=C1NC(=O)C2(CCCN(c3nc(OCC45CCCN4CCC5)nc4c(F)c(-c5cccc6cccc(F)c56)ncc34)C2)N1 (stereo not drawn) [Example 158, 7-(8-fluoro-7-(8-fluoronaphthalen-1-yl)-2-((hexahydro-1H-pyrrolizin-7a-yl)methoxy)pyrido[4,3-d]pyrimidin-4-yl)-1,3,7-triazaspiro[4.5]decane-2,4-dione] | 6.99 | 7.16 | 102 | 7.39 | 7.09 | 7.07 | 83 | 6.82 | 7.11 |
| CCc1cccc2cccc(-c3ncc4c(NCc5cccnc5N)nc(OCC56CCCN5CCC6)nc4c3F)c12 [Example 204, N-((2-aminopyridin-3-yl)methyl)-7-(8-ethylnaphthalen-1-yl)-8-fluoro-2-((hexahydro-1H-pyrrolizin-7a-yl)methoxy)pyrido[4,3-d]pyrimidin-4-amine] | 6.63 | 7.29 | 283 | 7.70 | 7.68 | 7.42 | 317 | 5.89 | 7.37 |
| CCc1cccc2cccc(-c3ncc4c(NCc5c[nH]c6ncccc56)nc(OCC56CCCN5CCC6)nc4c3F)c12 [Example 205, N-((1H-pyrrolo[2,3-b]pyridin-3-yl)methyl)-7-(8-ethylnaphthalen-1-yl)-8-fluoro-2-((hexahydro-1H-pyrrolizin-7a-yl)methoxy)pyrido[4,3-d]pyrimidin-4-amine] | 7.10 | 7.80 | 95 | 8.00 | 8.15 | 7.89 | 69 | 6.51 | 8.10 |
| Fc1c(-c2cccc3cccc(F)c23)ncc2c(OCCCc3cccnc3)nc(OCC34CCCN3CCC4)nc12 [Example 207, 8-fluoro-7-(8-fluoronaphthalen-1-yl)-4-(3-(pyridin-3-yl)propoxy)-2-((tetrahydro-1H-pyrrolizin-7a(5H)-yl)methoxy)pyrido[4,3-d]pyrimidine] | 4.57 | 4.34 | 46400 | 4.93 | 4.88 | 4.74 | 30400 | 4.76 | 5.21 |
